The source of these data is the OligoGym collection.

HELM strings list units from the 5' end as sugar, base in round brackets, then linkage (d deoxyribose, r ribose, m 2'-O-methyl, p phosphodiester). Strings are as the collection lists them; they lack the last nucleoside at the 3' end of the tested compound. [moe] = 2'-O-(2-methoxyethyl) (MOE); [sp] = phosphorothioate linkage; [m5C] = 5-methylcytosine

The data set has as its target ATXN2. The experiment in a line: mouse, dose not given. The following applies: ASO.
As for “RNA1{[moe](A)[sp].[moe]([m5C])p.[moe](T)p.[moe](T)p.[moe]([m5C])p.d(A)[sp].d([m5C])[sp].d(A)[sp].d(T)[sp].d(T)[sp].d(T)[sp].d(G)[sp].d(G)[sp].d(A)[sp].d(G)[sp].[moe]([m5C])p.[moe]([m5C])p.[moe]([m5C])[sp].[moe](T)}$$$$ (last 3' nucleoside missing)”, the 3 h FOB score is 5.75 score 0-7.

“RNA1{[moe](A)[sp].[moe]([m5C])p.[moe](T)p.[moe](T)p.[moe]([m5C])p.d(T)[sp].d([m5C])[sp].d(T)[sp].d(A)[sp].d(T)[sp].d(T)[sp].d(T)[sp].d([m5C])[sp].d(T)[sp].d(T)[sp].[moe](T)p.[moe](G)p.[moe](T)[sp].[moe]([m5C])}$$$$ (last 3' nucleoside missing)” had a 3 h FOB score of 3 score 0-7.

In the case of “RNA1{[moe](A)[sp].[moe]([m5C])p.[moe](T)p.[moe](T)p.d(T)[sp].d(T)[sp].d([m5C])[sp].d(T)[sp].d([m5C])[sp].d(A)[sp].d(T)[sp].d(G)[sp].d(T)[sp].d(G)[sp].[moe]([m5C])p.[moe](G)p.[moe](G)p.[moe]([m5C])[sp].[moe](A)}$$$$ (last 3' nucleoside missing)”, the 3 h FOB score stood at 2.5 score 0-7.

On to “RNA1{[moe](A)[sp].[moe]([m5C])p.[moe](T)p.[moe](T)p.d([m5C])[sp].d(T)[sp].d([m5C])[sp].d(T)[sp].d(A)[sp].d(T)[sp].d(T)[sp].d(T)[sp].d([m5C])[sp].d(T)[sp].[moe](T)p.[moe](T)p.[moe](G)p.[moe](T)[sp].[moe]([m5C])}$$$$ (last 3' nucleoside missing)”, for which the 3 h FOB score is 0 score 0-7.

“RNA1{[moe](A)[sp].[moe]([m5C])p.[moe](T)p.[moe]([m5C])p.[moe](T)p.d([m5C])[sp].d([m5C])[sp].d(A)[sp].d(T)[sp].d(T)[sp].d(A)[sp].d(T)[sp].d(T)[sp].d(T)[sp].d([m5C])[sp].[moe](T)p.[moe](T)p.[moe]([m5C])[sp].[moe](A)}$$$$ (last 3' nucleoside missing)” had a 3 h FOB score of 1 score 0-7.

As for “RNA1{[moe](G)[sp].[moe](A)p.[moe](A)p.[moe](G)p.[moe](T)p.d([m5C])[sp].d(T)[sp].d(T)[sp].d(G)[sp].d(T)[sp].d(T)[sp].d([m5C])[sp].d(A)[sp].d(G)[sp].d(T)[sp].[moe](G)p.[moe](T)p.[moe]([m5C])[sp].[moe]([m5C])}$$$$ (last 3' nucleoside missing)”, the 3 h FOB score was determined as 3.75 score 0-7.

The substance “RNA1{[moe](G)[sp].[moe](A)p.[moe](A)p.[moe](G)p.[moe]([m5C])p.d(A)[sp].d(G)[sp].d(A)[sp].d(T)[sp].d(T)[sp].d(T)[sp].d(T)[sp].d(T)[sp].d(T)[sp].d(T)[sp].[moe](T)p.[moe](T)p.[moe](T)[sp].[moe](T)}$$$$ (last 3' nucleoside missing)” returned a 3 h FOB score of 3 score 0-7.

“RNA1{[moe](G)[sp].[moe](A)p.[moe](A)p.[moe](T)p.[moe]([m5C])p.d(T)[sp].d(T)[sp].d(A)[sp].d(T)[sp].d(T)[sp].d(A)[sp].d(A)[sp].d(G)[sp].d([m5C])[sp].d(A)[sp].[moe](A)p.[moe](G)p.[moe](T)[sp].[moe]([m5C])}$$$$ (last 3' nucleoside missing)”: the 3 h FOB score was 2.5 score 0-7.

In turn, “RNA1{[moe](G)[sp].[moe](A)p.[moe](A)p.[moe]([m5C])p.[moe](A)p.d([m5C])[sp].d([m5C])[sp].d(A)[sp].d(T)[sp].d(G)[sp].d(A)[sp].d([m5C])[sp].d(T)[sp].d(G)[sp].d(A)[sp].[moe](T)p.[moe]([m5C])p.[moe]([m5C])[sp].[moe]([m5C])}$$$$ (last 3' nucleoside missing)” registered a 3 h FOB score of 4 score 0-7.

Regarding “RNA1{[moe](G)[sp].[moe](A)p.[moe](A)p.[moe]([m5C])p.[moe](T)p.d(G)[sp].d(G)[sp].d(A)[sp].d(T)[sp].d(T)[sp].d([m5C])[sp].d(T)[sp].d(G)[sp].d(T)[sp].d(A)[sp].[moe]([m5C])p.[moe](T)p.[moe](T)[sp].[moe](T)}$$$$ (last 3' nucleoside missing)”, the 3 h FOB score is 4 score 0-7.

The substance “RNA1{[moe](G)[sp].[moe](A)p.[moe](A)p.[moe]([m5C])p.[moe]([m5C])p.d(A)[sp].d(G)[sp].d(A)[sp].d(A)[sp].d(T)[sp].d(T)[sp].d([m5C])[sp].d(G)[sp].d(G)[sp].d(G)[sp].[moe](T)p.[moe](T)p.[moe](G)[sp].[moe](A)}$$$$ (last 3' nucleoside missing)” gave a 3 h FOB score of 3.75 score 0-7.

Regarding “RNA1{[moe](G)[sp].[moe](A)p.[moe](G)p.[moe](T)p.[moe](T)p.d(T)[sp].d(T)[sp].d(T)[sp].d(G)[sp].d([m5C])[sp].d([m5C])[sp].d(T)[sp].d(T)[sp].d([m5C])[sp].d([m5C])[sp].[moe](A)p.[moe](T)p.[moe](T)[sp].[moe](T)}$$$$ (last 3' nucleoside missing)”, the 3 h FOB score stood at 1 score 0-7.

Take “RNA1{[moe](G)[sp].[moe](A)p.[moe](G)p.[moe](T)p.[moe](T)p.d([m5C])[sp].d(A)[sp].d([m5C])[sp].d([m5C])[sp].d(T)[sp].d(G)[sp].d([m5C])[sp].d(A)[sp].d(T)[sp].d([m5C])[sp].[moe]([m5C])p.[moe]([m5C])p.[moe](A)[sp].[moe](G)}$$$$ (last 3' nucleoside missing)”: the 3 h FOB score was 6 score 0-7.

As for “RNA1{[moe](G)[sp].[moe](A)p.[moe](T)p.[moe](A)p.[moe](T)p.d(G)[sp].d(T)[sp].d(T)[sp].d(A)[sp].d([m5C])[sp].d(A)[sp].d(A)[sp].d(A)[sp].d(T)[sp].d(T)[sp].[moe]([m5C])p.[moe](T)p.[moe]([m5C])[sp].[moe](T)}$$$$ (last 3' nucleoside missing)”, the 3 h FOB score came out at 0 score 0-7.

In turn, “RNA1{[moe](G)[sp].[moe](A)p.[moe](T)p.[moe](G)p.[moe](T)p.d(T)[sp].d(T)[sp].d([m5C])[sp].d(A)[sp].d(T)[sp].d(T)[sp].d(G)[sp].d(G)[sp].d(G)[sp].d(T)[sp].[moe](T)p.[moe](T)p.[moe](A)[sp].[moe](A)}$$$$ (last 3' nucleoside missing)” displayed a 3 h FOB score of 6.25 score 0-7.

In turn, “RNA1{[moe](G)[sp].[moe](A)p.[moe](T)p.[moe](T)p.[moe](A)p.d(A)[sp].d([m5C])[sp].d(G)[sp].d(G)[sp].d(T)[sp].d(T)[sp].d(G)[sp].d([m5C])[sp].d(T)[sp].d(T)[sp].[moe](A)p.[moe](G)p.[moe](G)[sp].[moe](G)}$$$$ (last 3' nucleoside missing)” showed a 3 h FOB score of 6.5 score 0-7.

“RNA1{[moe](G)[sp].[moe](A)p.[moe](T)p.[moe](T)p.[moe]([m5C])[sp].d(T)[sp].d(G)[sp].d(T)[sp].d(A)[sp].d([m5C])[sp].d(T)[sp].d(T)[sp].d(T)[sp].[moe](T)p.[moe]([m5C])p.[moe](T)[sp].[moe]([m5C])}$$$$ (last 3' nucleoside missing)” came in with a 3 h FOB score of 1 score 0-7.

“RNA1{[moe](G)[sp].[moe](A)p.[moe](T)p.[moe](T)p.[moe]([m5C])p.d(T)[sp].d(G)[sp].d(T)[sp].d(A)[sp].d([m5C])[sp].d(T)[sp].d(T)[sp].d(T)[sp].d(T)[sp].d([m5C])[sp].[moe](T)p.[moe]([m5C])p.[moe](A)[sp].[moe](T)}$$$$ (last 3' nucleoside missing)” had a 3 h FOB score of 4.5 score 0-7.

Consider “RNA1{[moe](G)[sp].[moe](A)p.[moe]([m5C])p.[moe](A)p.[moe](T)p.d(G)[sp].d([m5C])[sp].d(G)[sp].d(G)[sp].d(T)[sp].d(T)[sp].d(T)[sp].d([m5C])[sp].d(A)[sp].d([m5C])[sp].[moe]([m5C])p.[moe](A)p.[moe](T)[sp].[moe](T)}$$$$ (last 3' nucleoside missing)”, for which the 3 h FOB score turned out to be 4 score 0-7.

“RNA1{[moe](G)[sp].[moe](G)[sp].[moe](A)[sp].[moe](G)[sp].[moe]([m5C])[sp].d(T)[sp].d(G)[sp].d(G)[sp].d(A)[sp].d(G)[sp].d(A)[sp].d(A)[sp].d([m5C])[sp].d([m5C])[sp].d(A)[sp].[moe](T)[sp].[moe](G)[sp].[moe](A)[sp].[moe](G)}$$$$ (last 3' nucleoside missing)” showed a 3 h FOB score of 7 score 0-7.

“RNA1{[moe](G)[sp].[moe](G)p.[moe](A)p.[moe](A)p.[moe](T)p.d([m5C])[sp].d(T)[sp].d(T)[sp].d(A)[sp].d(T)[sp].d(T)[sp].d(A)[sp].d(A)[sp].d(G)[sp].d([m5C])[sp].[moe](A)p.[moe](A)p.[moe](G)[sp].[moe](T)}$$$$ (last 3' nucleoside missing)”: the 3 h FOB score was found to be 4.5 score 0-7.

For the substance “RNA1{[moe](G)[sp].[moe](G)p.[moe](A)p.[moe](T)p.[moe](A)p.d([m5C])[sp].d(A)[sp].d(A)[sp].d(A)[sp].d(T)[sp].d(T)[sp].d([m5C])[sp].d(T)[sp].d(A)[sp].d(G)[sp].[moe](G)p.[moe]([m5C])p.[moe]([m5C])[sp].[moe](A)}$$$$ (last 3' nucleoside missing)”, the 3 h FOB score turned out to be 4 score 0-7.

“RNA1{[moe](G)[sp].[moe](G)p.[moe](A)p.[moe](T)p.[moe](T)[sp].d([m5C])[sp].d(T)[sp].d(G)[sp].d(T)[sp].d(A)[sp].d([m5C])[sp].d(T)[sp].d(T)[sp].[moe](T)p.[moe](T)p.[moe]([m5C])[sp].[moe](T)}$$$$ (last 3' nucleoside missing)”: the 3 h FOB score was determined as 2.5 score 0-7.

Turning to “RNA1{[moe](G)[sp].[moe](G)p.[moe](A)p.[moe](T)p.[moe](T)p.d(G)[sp].d(T)[sp].d(T)[sp].d(T)[sp].d(T)[sp].d([m5C])[sp].d(T)[sp].d(T)[sp].d([m5C])[sp].d(A)[sp].[moe](T)p.[moe](T)p.[moe](A)[sp].[moe](T)}$$$$ (last 3' nucleoside missing)”, the 3 h FOB score came to 0 score 0-7.

As to “RNA1{[moe](G)[sp].[moe](G)p.[moe](A)p.[moe](T)p.[moe](T)p.d([m5C])[sp].d(T)[sp].d(G)[sp].d(T)[sp].d(A)[sp].d([m5C])[sp].d(T)[sp].d(T)[sp].d(T)[sp].d(T)[sp].[moe]([m5C])p.[moe](T)p.[moe]([m5C])[sp].[moe](A)}$$$$ (last 3' nucleoside missing)”, the 3 h FOB score is 1 score 0-7.

Regarding “RNA1{[moe](G)[sp].[moe](G)p.[moe](A)p.[moe]([m5C])p.[moe](A)p.d(A)[sp].d(G)[sp].d(A)[sp].d(A)[sp].d(A)[sp].d(T)[sp].d(T)[sp].d(T)[sp].d(T)[sp].d([m5C])[sp].[moe](A)p.[moe](G)p.[moe](T)[sp].[moe](T)}$$$$ (last 3' nucleoside missing)”, the 3 h FOB score was determined as 4.5 score 0-7.
